From PubChem BioAssay AID2060496 (Molecular Pharmacology Branch, DTP, NCI, 2025)
pIC50: −log10 of the molar value.

Test system: 276233-004-R-J1-PDC complex spheroid viability
Assay: Anticancer human tumor 276233-004-R-J1-PDC patient-derived colon adenocarcinoma cell line growth inhibition [GQUAD]
Conditions: for pIC50: curve of first compound; for viability, T/C: stronger effect = lower value
Text: DNA G-quadruplex Stabilizer Agents in Combinations in Complex Spheroids
A high-throughput screen of multi-cell type tumor spheroids was designed to identify active combinations of DNA G-quadruplex stabilizer agents and targeted small molecules. Complex spheroids include a stromal component modeled by human endothelial cells (HUVEC) and fibroblasts modeled by human mesenchymal stem cells (MSCs). The concentration ranges selected for each drug and investigational agent were based upon clinically achievable concentrations if the clinical Cmax of the agent was known.
Compounds. The drugs and investigational agents: pidnarulex (CX-5461; NSC782164), APTO-253 (NSC789042), BRACO-19 (NSC847499), peposertib (NSC802822), ceralasertib (NSC780249), elimusertib (NSC800525), camonsertib (NSC841442), AZD-1390 (NSC803789), olaparib (NSC753686), talazoparib (NSC767125), ART-558 (NSC835418), sotorasib (NSC818433), MRTX-1133 (NSC836407), SN-38 (NSC673596), topotecan (NSC609699), etoposide (NSC141540), doxorubicin (NSC123127), gemcitabine (NSC613327), 5-fluorouracil (NSC19893), paclitaxel (NSC125973), vemurafenib (NSC761431), panobinostat (NSC761190), R-306465 (JNJ-16241199; NSC773264), adavosertib (NSC754352), TP-3654 (NSC805149), carboplatin (NSC241240), KSQ-4279 (NSC840948), and staurosporine (NSC755774) were obtained from the National Cancer Institute (NCI) Developmental Therapeutics Program Chemical Repository (34). The FDA-approved anticancer drug set is available from the NCI Developmental Therapeutics Program. […] The stock solutions were prepared in dimethyl sulfoxide (DMSO, Sigma-Aldrich, St. Louis, MO, cat. D2650) at 800-fold the tested concentration and stored at -70 degrees C prior to their use. All drugs and investigational agents were tested over a range starting from a high concentration at or near the clinical Cmax and decreasing in half-log increments. If the clinical Cmax for an agent had not been determined, the highest concentration tested was 10 microM.
2.3 Cell Culture. All cells were maintained in an incubator at 37 degrees C and 5% CO2 with 95% humidity. The PDC lines were cultured according to standard operating procedures established by the NCI PDMR. All PDCs were thawed and cultured in Matrigel-coated flasks prepared with a working solution of 1X Ham's F-12 nutrient mix, without supplementation (Invitrogen, cat. 11765054), 100 U/mL penicillin-streptomycin (Invitrogen, cat. 15140122), and 2.5% Matrigel (Corning Inc., cat. 354248) for the first three passages. The 857933-349-R-J2-PDC line was cultured in 6C/Colon 1B media, which includes advanced DMEM/F-12 (Thermo Fisher Scientific, cat. 12634028), 10 mM HEPES (Thermo Fisher Scientific, cat. 15630080), 1X GlutaMAX supplement (Thermo Fisher Scientific, cat. 35050061), 0.1 mg/mL primocin (InvivoGen, cat. ant-pm-2), 10% defined fetal bovine serum, heat inactivated (HyClone Laboratories Inc., cat. SH30070.03HI), 50% L-WRN conditioned media (ATCC, cat. CRL-3276), 1.25 mM N-Acetyl-L-cysteine (Sigma-Aldrich, cat. A9165), 10 mM nicotinamide (Sigma-Aldrich, cat. N0636), 1X B-27 supplement (Thermo Fisher Scientific, cat. 17504044), 1X N-2 supplement (Thermo Fisher Scientific, cat. 17502048), 10 microM Y-27632 dihydrochloride (Tocris Bioscience, cat. 1254), and 50 ng/mL human EGF recombinant protein (Thermo Fisher Scientific, cat. PHG0311). The 485176-168-R4-J1-PDC line was cultured in Panc media, which includes all 6C/Colon 1B media components plus 100 ng/mL human FGF-10 (Thermo Fisher Scientific, cat. 100-26), 500 nM SB-431542 (Selleckchem, cat. S1067), and gastrin (Tocris, cat. 3006).
[…]
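Note: spheroids exposed to drugs for seven days.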
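Throughout, for viability, T/C: 100% = DMSO vehicle control viability.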

**Q.** What does the source list for `CC1COCCN1c1cc(-c2ccnn2C)c2ccnc(-c3ccn[nH]3)c2n1` (configuration not stated) + CN(C)c1ccc(Nc2c3ccc(NC(=O)CCN4CCCC4)cc3nc3cc(NC(=O)CCN4CCCC4)ccc23)cc1?
**A.** pIC50 (second compound 0.0316 µM): 5.15; pIC50 (second compound 0.1 µM): 5.21; pIC50 (second compound 0.316 µM): 6.29; pIC50 (second compound 1 µM): 6.96; pIC50 (second compound 3.16 µM): 6.84; pIC50 (second compound 10 µM): > 7.50; viability, T/C (second compound 0.0316 µM, first compound 0.0316 µM): 83.7%; viability, T/C (second compound 0.0316 µM, first compound 0.1 µM): 77.8%; viability, T/C (second compound 0.0316 µM, first compound 0.316 µM): 74.8%; viability, T/C (second compound 0.0316 µM, first compound 1 µM): 73.1%; viability, T/C (second compound 0.0316 µM, first compound 3.16 µM): 55%; viability, T/C (second compound 0.0316 µM, first compound 10 µM): 47.9%; viability, T/C (second compound 0.1 µM, first compound 0.0316 µM): 80.4%; viability, T/C (second compound 0.1 µM, first compound 0.1 µM): 70%; viability, T/C (second compound 0.1 µM, first compound 0.316 µM): 76.6%; viability, T/C (second compound 0.1 µM, first compound 1 µM): 69.9%; viability, T/C (second compound 0.1 µM, first compound 3.16 µM): 56.3%; viability, T/C (second compound 0.1 µM, first compound 10 µM): 44.1%; viability, T/C (second compound 0.316 µM, first compound 0.0316 µM): 77.9%; viability, T/C (second compound 0.316 µM, first compound 0.1 µM): 61.6%; viability, T/C (second compound 0.316 µM, first compound 0.316 µM): 51.6%; viability, T/C (second compound 0.316 µM, first compound 1 µM): 52.5%; viability, T/C (second compound 0.316 µM, first compound 3.16 µM): 35.3%; viability, T/C (second compound 0.316 µM, first compound 10 µM): 40.3%; viability, T/C (second compound 1 µM, first compound 0.0316 µM): 52.9%; viability, T/C (second compound 1 µM, first compound 0.1 µM): 54.1%; viability, T/C (second compound 1 µM, first compound 0.316 µM): 44.7%; viability, T/C (second compound 1 µM, first compound 1 µM): 40.5%; viability, T/C (second compound 1 µM, first compound 3.16 µM): 38.2%; viability, T/C (second compound 1 µM, first compound 10 µM): 34.4%; viability, T/C (second compound 3.16 µM, first compound 0.0316 µM): 58.5%; viability, T/C (second compound 3.16 µM, first compound 0.1 µM): 56%; viability, T/C (second compound 3.16 µM, first compound 0.316 µM): 42.6%; viability, T/C (second compound 3.16 µM, first compound 1 µM): 40.5%; viability, T/C (second compound 3.16 µM, first compound 3.16 µM): 40.4%; viability, T/C (second compound 3.16 µM, first compound 10 µM): 35.5%; viability, T/C (second compound 10 µM, first compound 0.0316 µM): 46.2%; viability, T/C (second compound 10 µM, first compound 0.1 µM): 40.1%; viability, T/C (second compound 10 µM, first compound 0.316 µM): 33.8%; viability, T/C (second compound 10 µM, first compound 1 µM): 32.6%; viability, T/C (second compound 10 µM, first compound 3.16 µM): 39.8%; viability, T/C (second compound 10 µM, first compound 10 µM): 27.8%
